The values below are quoted from earlier work in publication PMC7451048 (Drug metabolism letters, 2019).

The conditions of series [1]: co-administration of clopidogrel and ticlopidine; ref [25]; cited from earlier work.
The next series has as its target T1, BCRP (Homo sapiens, UniProt Q9UNQ0).
T1 sequence (Q9UNQ0 1-655): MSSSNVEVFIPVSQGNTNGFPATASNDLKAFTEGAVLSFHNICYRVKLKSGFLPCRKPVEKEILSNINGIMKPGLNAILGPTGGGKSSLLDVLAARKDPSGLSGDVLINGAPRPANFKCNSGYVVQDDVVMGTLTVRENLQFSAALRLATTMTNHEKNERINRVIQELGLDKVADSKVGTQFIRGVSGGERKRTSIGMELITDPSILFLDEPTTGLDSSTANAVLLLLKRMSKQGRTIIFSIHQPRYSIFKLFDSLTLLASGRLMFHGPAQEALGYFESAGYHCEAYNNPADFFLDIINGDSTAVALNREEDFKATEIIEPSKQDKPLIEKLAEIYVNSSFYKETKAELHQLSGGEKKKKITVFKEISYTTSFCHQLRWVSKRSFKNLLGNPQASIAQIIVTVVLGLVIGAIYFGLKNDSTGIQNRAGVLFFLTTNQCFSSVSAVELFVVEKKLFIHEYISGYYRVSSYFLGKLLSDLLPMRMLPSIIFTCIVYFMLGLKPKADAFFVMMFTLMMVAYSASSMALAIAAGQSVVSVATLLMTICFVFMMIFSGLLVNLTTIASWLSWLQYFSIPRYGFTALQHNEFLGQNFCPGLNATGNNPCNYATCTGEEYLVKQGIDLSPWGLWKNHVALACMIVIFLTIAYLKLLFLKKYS
To be noted: read-out: Km for BCRP; membrane vesicles isolated from human placenta; ref [61]; cited from earlier work.

The next series has as its target P-gp (Homo sapiens, UniProt P08183). To be noted: read-out: Km for P-gp; membrane vesicles isolated from human placenta; ref [61]; cited from earlier work.
Series [2] has as its system OCT/PMAT/MATE transporters. To be noted: read-out: IC50 (OCT/PMAT/MATE inhibitor); reported; ref [44]–[47]; cited from earlier work.

Sequence of P-gp (P08183 whole entry): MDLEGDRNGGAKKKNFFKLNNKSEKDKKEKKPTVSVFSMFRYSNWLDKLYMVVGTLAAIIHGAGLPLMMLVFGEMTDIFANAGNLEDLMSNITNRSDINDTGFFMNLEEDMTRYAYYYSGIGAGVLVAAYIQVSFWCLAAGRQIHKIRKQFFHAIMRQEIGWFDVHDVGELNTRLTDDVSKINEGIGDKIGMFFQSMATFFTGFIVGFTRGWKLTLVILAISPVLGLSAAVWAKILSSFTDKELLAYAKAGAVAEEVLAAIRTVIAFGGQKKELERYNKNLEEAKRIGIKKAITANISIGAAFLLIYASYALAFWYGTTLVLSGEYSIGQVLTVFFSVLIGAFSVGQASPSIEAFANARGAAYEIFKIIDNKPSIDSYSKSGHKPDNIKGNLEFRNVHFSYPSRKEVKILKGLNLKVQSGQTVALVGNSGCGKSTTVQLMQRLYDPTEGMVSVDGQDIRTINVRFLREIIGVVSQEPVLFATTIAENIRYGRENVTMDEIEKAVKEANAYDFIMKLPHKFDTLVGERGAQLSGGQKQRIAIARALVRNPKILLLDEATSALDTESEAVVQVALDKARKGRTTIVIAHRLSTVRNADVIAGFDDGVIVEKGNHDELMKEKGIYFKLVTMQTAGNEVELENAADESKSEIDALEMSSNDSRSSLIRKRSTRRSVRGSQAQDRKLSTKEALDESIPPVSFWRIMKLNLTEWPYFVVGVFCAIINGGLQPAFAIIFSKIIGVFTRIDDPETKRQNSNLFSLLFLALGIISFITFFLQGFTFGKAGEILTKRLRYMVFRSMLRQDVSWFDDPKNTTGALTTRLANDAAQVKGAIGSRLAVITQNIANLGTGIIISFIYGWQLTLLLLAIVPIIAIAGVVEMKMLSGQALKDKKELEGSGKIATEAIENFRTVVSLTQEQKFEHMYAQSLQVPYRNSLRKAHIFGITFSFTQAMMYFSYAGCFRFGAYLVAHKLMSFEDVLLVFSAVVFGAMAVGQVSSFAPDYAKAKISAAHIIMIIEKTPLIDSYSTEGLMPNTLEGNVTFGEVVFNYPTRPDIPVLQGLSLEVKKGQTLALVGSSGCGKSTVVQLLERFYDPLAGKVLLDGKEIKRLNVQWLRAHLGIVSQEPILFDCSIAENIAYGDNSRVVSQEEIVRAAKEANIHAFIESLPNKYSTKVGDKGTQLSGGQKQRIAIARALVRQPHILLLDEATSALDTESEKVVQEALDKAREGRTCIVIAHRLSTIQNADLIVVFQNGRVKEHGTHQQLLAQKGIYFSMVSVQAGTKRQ

Turning to `CC(NC(C)(C)C)C(=O)c1cccc(Cl)c1` (centres unmarked) [BUP, Bupropion], the Difference in half-life result in series [1] is listed as “no significant difference”. Besides, the “Increase in systemic exposure (AUC)” value in series [1] is given as 36–61%. In addition, the results for the Km at BCRP and on P-gp were 3 µM and 0.5 µM, respectively.

`CCN1/C(=C/c2ccc3ccccc3[n+]2CC)C=Cc2ccccc21` [D-22, Decynium-22]: the IC50 in series [2] was 13.8 to 21.9 µM.

What is called Km is the concentration of substrate that gives half-maximal velocity.
